Experiments:
Type in all cases: physicochemical
[1] = In vitro drug release through porous membrane, Franz diffusion cells; settings: within 24 hours of NPS application; 0.5% w/v Volpo in PBS (pH 7.4), 32° C.
Method: In vitro drug release studies of KP-NPS, SP-NPS, SP+KP-NPS, KP-NPS-OA, SP-NPS-OA and SP+KP-NPS-OA were performed to investigate the amount of drug released from NPS or NPS-OA. A porous membrane of MWCO at 50,000 Da (SIGMA-ALDRICH Co., St. Louis, Mo.) was used. The membrane was mounted between the donor and receiver compartments of Franz diffusion cells (N. Ghouchi Eskandar, S. Simovic, C. Prestidge, Nanoparticle coated submicron emulsions: sustained in-vitro release and improved dermal delivery of All-trans-retinol, Pharm Res, 26 (2009) 1764-1775).
The NPS dispersion was applied evenly on the surface of the membrane in the donor compartment. […] At predetermined time intervals (e.g., 1, 2, 4, 6, 8, 12, 22, 24, 48 and 72 hours), 0.5 ml samples were collected from the receiver compartment and replaced with fresh buffer solution. The samples collected from receiver compartment were analyzed for drug content using the HPLC method.

[2] = Entrapment efficiency using vivaspin columns; settings: in NPS; unaffected by surface modification
Method: The NPS and NPS-OA (0.5 ml) were placed on top of the vivaspin centrifuge filter membrane and centrifuged at 4,500 rpm for fifteen (15) minutes. The amount of SP and KP present in the aqueous phase was estimated using HPLC.

[3] = Solubility test in selected receiver fluids

Compound | release of drug from NPS [1] [%] | entrapment efficiency [2] | solubility ([3]; 0.1% w/v Volpo 20 in PBS (pH 7.4), 1 mg/ml) | solubility ([3]; 0.5% w/v Volpo 20 in PBS (pH 7.4), 1 mg/ml) | solubility ([3]; 5% w/v BSA in PBS (pH 7.4)) | solubility ([3]; SP and KP mixed together in PBS (pH 7.4) containing 10% w/v ethanol) | solubility ([3]; ethanol)
CC(C(=O)O)c1cccc(C(=O)c2ccccc2)c1 (centres unmarked) [KP, Ketoprofen] | > 75 |  |  |  |  |  | 
Spantide II | 34 | 92.81%±2.17 | insoluble | soluble | soluble | precipitation was observed | soluble
